What all share (assay): inhibition of tumour cell growth, NCI panel, 48 h
The subject of experiment [1] is A498 renal.
The subject of experiment [2] is CCRF-CEM leukemia.
The test system of experiment [3] is DU-145 prostate.
Experiment [4] relates to OVCAR-3 ovarian.
For experiment [5], the system named is SF-539 CNS.
Experiment [6] has as its system SK-MEL-5 melanoma.
Experiment [7] relates to SN12C renal.
Experiment [8] relates to T-47D breast.
In experiment [9] the test system is MCF7 breast.
The test system of experiment [10] is UACC-257 melanoma.

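48-hour exposure; five concentrations; linearly interpolated endpoints. Here, GI50 denotes the concentration required for 50% inhibition of growth. The concentration for full growth arrest is given as TGI.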 Where only a bound is given, the exact number is not on record here.

For the molecule `Clc1ccc(-c2nn3c(C45CC6CC(CC(C6)C4)C5)nnc3s2)cc1`, the TGI in [1], in [2], in [3], in experiment [4], in experiment [5] and in [6] was over 100 µM in each case. For the same molecule, the TGI in experiment [7] and in [8] was over 100 µM throughout.

As for `C=CCc1cccc2cc(C(=O)Nc3nc(C45CC6CC(CC(C6)C4)C5)cs3)c(=O)oc12`, the TGI was 70.6 µM in experiment [1]; over 100 µM in [2]; over 100 µM in experiment [3]; over 100 µM in experiment [9]; 67.6 µM in experiment [4]; over 100 µM in experiment [5]. Moreover, the TGI in experiment [6], in [7] and in experiment [10] was over 100 µM throughout.

For the molecule `NC(CNc1ccc(O)cc1)C(=O)O` (stereo unspecified), the TGI in experiment [1], in experiment [2], in experiment [4], in experiment [6], in [7] and in [10] was over 100 µM each time.

For the molecule `c1cn[nH]c1`, the TGI in experiment [1], in experiment [2], in experiment [9], in [4], in experiment [5] and in experiment [6] was over 10 µM each time. Also, the TGI in experiment [7] and in experiment [8] was over 10 µM throughout.

With `CCCN(CCC)c1c([N+](=O)[O-])cc(C(=O)N(C)C)cc1[N+](=O)[O-]`, the TGI in experiment [2] is over 100 µM; in experiment [4], over 100 µM; in experiment [5], over 100 µM; in experiment [6], 28.9 µM; in experiment [7], over 100 µM; in [10], over 100 µM.

On to `COC(=O)C(N)CCCC(N)C(=O)NC(C)C(=O)NC(CCC(=O)NCCCNc1ccc([N+](=O)[O-])c2[nH]c3ccccc3c(=O)c12)C(N)=O` (stereo unspecified), for which the TGI in experiment [1] turned out to be 30.7 µM; in experiment [2], 14.3 µM; in [3] it was 19.1 µM; in experiment [4] it was 24.9 µM; in experiment [6] it was 23.9 µM; in experiment [8] it was 33.9 µM. For the same molecule, the TGI in experiment [10] is 23.2 µM.

As to `C/C(=C/c1c(C)[nH]c(=O)[nH]c1=O)C(=O)O`, the TGI in experiment [1] is over 1380 µM; in [2] it was over 1380 µM; in [9], over 1380 µM; in [4] it was over 1380 µM; in experiment [5], over 1380 µM; in [6], over 1370 µM. Further, the TGI in experiment [7] and in experiment [10] was over 1380 µM in each case.

`O=c1c(S(=O)(=O)Oc2ccccc2)coc2cc(F)ccc12`: the TGI in experiment [2], in [9], in experiment [4], in [5], in [6] and in [7] was over 100 µM throughout. Besides, the TGI in experiment [8] and in [10] was over 100 µM in each case.

Regarding `Cc1oc2c(C)c3oc(=O)cc(C)c3cc2c1CN`, the TGI in experiment [1], in experiment [2], in experiment [4], in experiment [5], in [7] and in [10] was over 100 µM each time.

In the case of `CC(C)C[C@H](NC(=O)[C@H](CCc1ccccc1)NC(=O)c1ccc2ccccc2n1)B(O)O`, the TGI in experiment [1] was 4.38 µM; in [3] it was 3.49 µM; in [9] it was 4.2 µM; in [4], 0.0818 µM; in [5] it was under 0.0225 µM; in experiment [6], 0.647 µM. The TGI is 0.486 µM in experiment [7] and 0.0676 µM in experiment [10].

As for `CCCCNCC(O)c1cc(-c2ccc(C(F)(F)F)cc2)nc(-c2ccc(C(F)(F)F)cc2)c1` (stereo unspecified), the GI50 in [1] is 1380 nM; in experiment [3], 2020 nM; in experiment [9] it was 1790 nM; in experiment [4] it was 1980 nM; in [6], 1770 nM; in [7] it was 1900 nM. Moreover, the GI50 in experiment [10] is 1830 nM. Moreover, the TGI in experiment [1] turned out to be 2.86 µM; in [3], 3.65 µM; in experiment [9], 3.54 µM; in [4], 3.66 µM; in experiment [6], 3.26 µM; in experiment [7], 3.55 µM. This molecule also gave a TGI in [10] of 3.57 µM.

Turning to `Cc1ccc(Nc2ccc(Nc3ccc(C)cc3S(=O)(=O)O)c3c2C(=O)c2ccccc2C3=O)c(S(=O)(=O)O)c1`, the TGI in experiment [1], in experiment [2], in [4], in [5], in experiment [6] and in experiment [7] was over 100 µM each time. Also, in experiment [10], the TGI was over 100 µM.

Take `COc1cc(C)cc(OC)c1/C=C/C(=O)O`: the TGI was over 100 µM in experiment [1]; 87.6 µM in experiment [4]; over 100 µM in experiment [6]; over 100 µM in [7]; over 100 µM in [8]; over 100 µM in experiment [10].

With `O=C(c1ccccc1)n1[nH]c(=O)n(-c2ccc(Cl)cc2)c1=O`, the TGI in experiment [2], in [3], in [9], in experiment [4], in [6] and in experiment [7] was over 100 µM throughout. Also, the TGI in experiment [8] and in experiment [10] was over 100 µM in each case.

On to `CC(C)=CCC/C(C)=C/CC/C(C)=C/CSc1ccc(Cl)cc1C(=O)O`, for which the TGI is 38.7 µM in experiment [1]; 48.9 µM in experiment [2]; 56 µM in experiment [3]; 32.8 µM in experiment [9]; 30.7 µM in experiment [4]; 36.4 µM in experiment [5]. Moreover, the TGI in [6] turned out to be 44.9 µM; in [7], 48 µM; in experiment [10], 82.2 µM.

For the molecule `CCOC(=O)/C=C1/Nc2cc(F)c(F)cc2NC1=O`, the TGI in experiment [2], in [3], in experiment [9], in experiment [4], in experiment [5] and in experiment [6] was over 100 µM each time. Further, the TGI in experiment [7] and in [10] was over 100 µM in each case.
